# Measurements from patent US10688200B2, “Urea-based prostate specific membrane antigen (PSMA) inhibitors for imaging and therapy” (Five Eleven Pharma Inc., priority 2015, dated 2020).
# Experiments:
# [1] = Biodistribution of radiotracers in normal mice; type: in vivo, mouse; settings: for Biodistribution: Blood / Biodistribution: Bone / Biodistribution: Brain / Biodistribution: Heart / Biodistribution: Kidney / Biodistribution: Liver / Biodistribution: Lung / Biodistribution: Muscle / Biodistribution: Pancreas / Biodistribution: Skin / Biodistribution: Spleen: normal male mice
# Outline: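 Male CD-1 mice received 35 μCi [^68Ga] radiotracer (0.2 nmole ligand) by tail vein. Four mice per time point sacrificed at 2, 30, 60 and 120 min p.i.; organs and blood weighed and gamma counted. %ID/g calculated against a standard dilution of the dose, decay-corrected.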
# [2] = tested on: PSMA-expressing LNCaP cells; test: Cell binding and internalization; type: cell-based, human; settings: for Cell surface binding activity / Internalized activity: 37° C.
# Procedure: The cellular uptake and internalization kinetics of the [^68Ga]1a, [^68Ga]5a and [^68Ga]5b were determined using PSMA-expressing LNCaP cells. Furthermore, to be able to discriminate between total cellular activity (sum of membrane-associated and internalized activity) and internalized activity, all incubations were followed by a washing step with mild acid at 4° C. to remove specifically cell-surface bound radioligand by displacement.
# LNCaP cells (in 6-well plates in triplicates) were incubated in RPMI-1640 medium with [^68Ga]1a, [^68Ga]5a or [^68Ga]5b for 0-2 h at 37° C. At the indicated time, the medium was removed and the cells were washed twice and then incubated with a mild acid buffer (50 mM glycine, 150 mM NaCl, pH 3.0) at 4° C. for 5 min. The supernatant (containing cell surface-bound radioactivity) was pooled and the cell pellet (containing internalized radioactivity) was collected with filter paper and then radioactivity in supernatant and cell pellet was counted on a gamma counter.
# LNCaP cells were incubated with [^68Ga]1a, [^68Ga]5a and [^68Ga]5b for up to 2 h at 37° C. to determine whether the compound is internalized by endocytosis. The cells were then washed with a mild acid buffer to remove extracellularly bound compound.
# Non specific binding (NSB) was evaluated by blocking with 20 μM PMPA. Specificity of cell uptake (SB) was calculated by subtracting the respective signals resulting from PMPA blocking. Values are expressed as % of applied radioactivity bound to 10^6 cells.
# [3] = tested on: LNCaP PSMA+ and PC-3 PSMA− tumor bearing mice; test: Small animal microPET imaging of [68Ga]5b in tumor bearing nude mice; type: in vivo, mouse
# Procedure: This study was performed in a small animal imaging facility Male CD-1-nu/nu mice were implanted subcutaneously with 5×10^6 LNCaP cells and PC-3 cells. When the tumors reached approximately 5-10 mm in diameter, the mice were used for microPET imaging. Mice bearing LNCaP tumor and PC-3 tumors were injected via the tail vein with ˜0.5 mCi of [^68Ga]5b. Imaging studies were carried out under general anesthesia of the animals, induced with inhalation of […] and maintained with inhalation of […] isoflurane in 30% oxygen/air. Animals were positioned prone in the scanner. Whole body scan was performed for 15 min from 60 min post-injection of radiotracers. PET images were generated using the AMIDE software. MicroPET images obtained in LNCaP and PC-3 tumor xenografts from 60 min to 75 min after injection of [^68Ga]5b are shown in FIGS. 5A-5C.
# [4] = tested on: LNCaP tumor bearing nude mice; test: Biodistribution of [68Ga]labeled ligand in PSMA positive tumor bearing nude mice; type: in vivo, mouse; settings: 1 h post-injection, i.v., n = 3
# Procedure: In a dish contained 5×10^6 cells of LNCaP in 50% Matrigel (Becton Dickinson, Heidelberg, Germany) were subcutaneously inoculated into the left shoulder of male 5- to 6-week-old CD-1 nu/nu mice (Charles River Laboratories). The tumors were allowed to grow for 8 weeks until approximately 0.5 cm^3 in size.
# The ^68Ga-radiolabeled compounds were injected via tail vein (25 μCi per mouse; 0.1-0.2 nmol). At 1 h after injection, the animals were sacrificed. Organs of interest were dissected and weighed. The radioactivity was measured with a gamma counter and calculated as % ID/g.
# [5] = 60 min to 75 min after injection
compound,measurement,setting,value
O=C(O)CCc1ccc2c(c1)C[N+]13CC[N+]45CC(=O)[O][68Ga-3]14([O]C(=O)C3)([O]2)[O]c1ccc(CCC(=O)NCC(=O)N[C@@H](Cc2ccc(OCC(=O)N[C@@H](Cc3ccccc3)C(=O)NCCCC[C@H](NC(=O)N[C@@H](CCC(=O)O)C(=O)O)C(=O)O)cc2)C(=O)O)cc1C5 (some centres unmarked) [[^68Ga]5b],"Clearance from organs, in words",[1]; normal CD-1 male mice,cleared quickly and well except kidneys and spleen
same,Biodistribution: Body leftover,"[1]; normal CD-1 male mice, 2 min",2.30 ± 0.05 % dose/g
same,Biodistribution: Fat,"[1]; normal CD-1 male mice, 2 min",2.08 ± 0.27 % dose/g
same,Biodistribution: Large intestine,"[1]; normal CD-1 male mice, 2 min",1.20 ± 0.20 % dose/g
same,Biodistribution: Seminal vesicles,"[1]; normal CD-1 male mice, 2 min",1.47 ± 0.25 % dose/g
same,Biodistribution: Small intestine,"[1]; normal CD-1 male mice, 2 min",2.46 ± 0.15 % dose/g
same,Biodistribution: Stomach,"[1]; normal CD-1 male mice, 2 min",0.81 ± 0.29 % dose/g
same,Biodistribution: Tail,"[1]; normal CD-1 male mice, 2 min",8.08 ± 0.78 % dose/g
same,Biodistribution: Testes,"[1]; normal CD-1 male mice, 2 min",0.96 ± 0.15 % dose/g
same,Biodistribution: Body leftover,"[1]; normal CD-1 male mice, 30 min",0.98 ± 0.05 % dose/g
same,Biodistribution: Fat,"[1]; normal CD-1 male mice, 30 min",1.45 ± 0.13 % dose/g
same,Biodistribution: Large intestine,"[1]; normal CD-1 male mice, 30 min",0.37 ± 0.04 % dose/g
same,Biodistribution: Seminal vesicles,"[1]; normal CD-1 male mice, 30 min",1.13 ± 0.19 % dose/g
same,Biodistribution: Small intestine,"[1]; normal CD-1 male mice, 30 min",1.03 ± 0.07 % dose/g
same,Biodistribution: Stomach,"[1]; normal CD-1 male mice, 30 min",0.31 ± 0.07 % dose/g
same,Biodistribution: Tail,"[1]; normal CD-1 male mice, 30 min",2.92 ± 0.95 % dose/g
same,Biodistribution: Testes,"[1]; normal CD-1 male mice, 30 min",1.14 ± 0.21 % dose/g
same,Biodistribution: Body leftover,"[1]; normal CD-1 male mice, 60 min",0.52 ± 0.11 % dose/g
same,Biodistribution: Fat,"[1]; normal CD-1 male mice, 60 min",0.73 ± 0.11 % dose/g
same,Biodistribution: Large intestine,"[1]; normal CD-1 male mice, 60 min",0.31 ± 0.21 % dose/g
same,Biodistribution: Seminal vesicles,"[1]; normal CD-1 male mice, 60 min",0.94 ± 0.22 % dose/g
same,Biodistribution: Small intestine,"[1]; normal CD-1 male mice, 60 min",0.74 ± 0.17 % dose/g
same,Biodistribution: Stomach,"[1]; normal CD-1 male mice, 60 min",0.17 ± 0.06 % dose/g
same,Biodistribution: Tail,"[1]; normal CD-1 male mice, 60 min",1.73 ± 0.55 % dose/g
same,Biodistribution: Testes,"[1]; normal CD-1 male mice, 60 min",0.82 ± 0.06 % dose/g
same,Biodistribution: Body leftover,"[1]; normal CD-1 male mice, 120 min",0.27 ± 0.01 % dose/g
same,Biodistribution: Fat,"[1]; normal CD-1 male mice, 120 min",0.35 ± 0.04 % dose/g
same,Biodistribution: Large intestine,"[1]; normal CD-1 male mice, 120 min",0.54 ± 0.16 % dose/g
same,Biodistribution: Seminal vesicles,"[1]; normal CD-1 male mice, 120 min",0.64 ± 0.10 % dose/g
same,Biodistribution: Small intestine,"[1]; normal CD-1 male mice, 120 min",0.45 ± 0.12 % dose/g
same,Biodistribution: Stomach,"[1]; normal CD-1 male mice, 120 min",0.22 ± 0.05 % dose/g
same,Biodistribution: Tail,"[1]; normal CD-1 male mice, 120 min",0.55 ± 0.04 % dose/g
same,Biodistribution: Testes,"[1]; normal CD-1 male mice, 120 min",0.68 ± 0.06 % dose/g
same,Biodistribution: Blood,[1]; 2 min,7.94 ± 0.52 % dose/g
same,Biodistribution: Bone,[1]; 2 min,2.16 ± 0.11 % dose/g
same,Biodistribution: Brain,[1]; 2 min,0.19 ± 0.02 % dose/g
same,Biodistribution: Heart,[1]; 2 min,4.33 ± 0.11 % dose/g
same,Biodistribution: Kidney,[1]; 2 min,50.32 ± 3.31 % dose/g
same,Biodistribution: Liver,[1]; 2 min,2.97 ± 0.24 % dose/g
same,Biodistribution: Lung,[1]; 2 min,5.75 ± 0.26 % dose/g
same,Biodistribution: Muscle,[1]; 2 min,1.97 ± 0.16 % dose/g
same,Biodistribution: Pancreas,[1]; 2 min,2.18 ± 0.04 % dose/g
same,Biodistribution: Skin,[1]; 2 min,2.38 ± 0.10 % dose/g
same,Biodistribution: Spleen,[1]; 2 min,3.86 ± 0.57 % dose/g
same,Biodistribution: Blood,[1]; 30 min,1.13 ± 0.13 % dose/g
same,Biodistribution: Bone,[1]; 30 min,0.60 ± 0.02 % dose/g
same,Biodistribution: Brain,[1]; 30 min,0.05 ± 0.01 % dose/g
same,Biodistribution: Heart,[1]; 30 min,0.98 ± 0.06 % dose/g
same,Biodistribution: Kidney,[1]; 30 min,73.96 ± 5.56 % dose/g
same,Biodistribution: Liver,[1]; 30 min,0.95 ± 0.11 % dose/g
same,Biodistribution: Lung,[1]; 30 min,2.63 ± 0.08 % dose/g
same,Biodistribution: Muscle,[1]; 30 min,0.67 ± 0.05 % dose/g
same,Biodistribution: Pancreas,[1]; 30 min,0.80 ± 0.09 % dose/g
same,Biodistribution: Skin,[1]; 30 min,1.14 ± 0.15 % dose/g
same,Biodistribution: Spleen,[1]; 30 min,1.70 ± 0.44 % dose/g
same,Biodistribution: Blood,[1]; 60 min,0.48 ± 0.11 % dose/g
same,Biodistribution: Bone,[1]; 60 min,0.38 ± 0.04 % dose/g
same,Biodistribution: Brain,[1]; 60 min,0.03 ± 0.00 % dose/g
same,Biodistribution: Heart,[1]; 60 min,0.40 ± 0.09 % dose/g
same,Biodistribution: Kidney,[1]; 60 min,62.77 ± 12.55 % dose/g
same,Biodistribution: Liver,[1]; 60 min,0.54 ± 0.09 % dose/g
same,Biodistribution: Lung,[1]; 60 min,1.28 ± 0.31 % dose/g
same,Biodistribution: Muscle,[1]; 60 min,0.31 ± 0.07 % dose/g
same,Biodistribution: Pancreas,[1]; 60 min,0.52 ± 0.02 % dose/g
same,Biodistribution: Skin,[1]; 60 min,0.58 ± 0.19 % dose/g
same,Biodistribution: Spleen,[1]; 60 min,1.71 ± 0.66 % dose/g
same,Biodistribution: Blood,[1]; 120 min,0.27 ± 0.07 % dose/g
same,Biodistribution: Bone,[1]; 120 min,0.26 ± 0.01 % dose/g
same,Biodistribution: Brain,[1]; 120 min,0.02 ± 0.00 % dose/g
same,Biodistribution: Heart,[1]; 120 min,0.22 ± 0.06 % dose/g
same,Biodistribution: Kidney,[1]; 120 min,49.00 ± 4.76 % dose/g
same,Biodistribution: Liver,[1]; 120 min,0.37 ± 0.06 % dose/g
same,Biodistribution: Lung,[1]; 120 min,0.61 ± 0.07 % dose/g
same,Biodistribution: Muscle,[1]; 120 min,0.16 ± 0.01 % dose/g
same,Biodistribution: Pancreas,[1]; 120 min,0.32 ± 0.02 % dose/g
same,Biodistribution: Skin,[1]; 120 min,0.26 ± 0.02 % dose/g
same,Biodistribution: Spleen,[1]; 120 min,1.39 ± 0.38 % dose/g
same,Cell surface binding activity,[2]; 5 min,2.50 ± 0.79 % ID/10^6 cells
same,Internalized activity,[2]; 5 min,1.58 ± 0.30 % ID/10^6 cells
same,Cell surface binding activity,[2]; 15 min,2.87 ± 0.10 % ID/10^6 cells
same,Internalized activity,[2]; 15 min,4.08 ± 0.01 % ID/10^6 cells
same,Cell surface binding activity,[2]; 30 min,3.54 ± 0.62 % ID/10^6 cells
same,Internalized activity,[2]; 30 min,8.29 ± 0.54 % ID/10^6 cells
same,Cell surface binding activity,[2]; 60 min,3.74 ± 0.33 % ID/10^6 cells
same,Internalized activity,[2]; 60 min,12.5 ± 0.46 % ID/10^6 cells
same,Cell surface binding activity,[2]; 90 min,5.03 ± 0.41 % ID/10^6 cells
same,Internalized activity,[2]; 90 min,20.0 ± 2.54 % ID/10^6 cells
same,Cell surface binding activity,[2]; 120 min,4.69 ± 0.45 % ID/10^6 cells
same,Internalized activity,[2]; 120 min,18.9 ± 1.61 % ID/10^6 cells
same,"Non specific binding (NSB) in LNCaP cell uptake, in words","[2]; blocking with 20 μM PMPA, FIG. 4",extremely low
same,"Internalized activity, comparison in words",[2]; up to 2 h at 37° C.,much higher than those of [^68Ga]1a and [^68Ga]5a
same,"Binding in LNCaP tumor and kidney with 2-PMPA co-injection, in words",[3]; 2-PMPA 2 mg/kg co-injected,binding was abolished in the LNCaP tumor and kidney tissue
same,"PC-3 (PSMA negative) tumor uptake in microPET, in words",[3]; [5],did not show any uptakes
same,"Uptake in microPET images, in words",[3]; [5],"uptake was seen only in the kidneys, bladder and PSMA positive LNCaP tumor"
same,Organ distribution: Blood,[4],0.46 ± 0.04 % dose/g
same,Organ distribution: Bone,[4],0.27 ± 0.07 % dose/g
same,Organ distribution: Brain,[4],0.05 ± 0.01 % dose/g
same,Organ distribution: Heart,[4],0.51 ± 0.12 % dose/g
same,Organ distribution: Liver,[4],0.78 ± 0.09 % dose/g
same,Organ distribution: Lung,[4],2.27 ± 0.37 % dose/g
same,Organ distribution: Muscle,[4],0.34 ± 0.07 % dose/g
same,Organ distribution: Pancreas,[4],0.97 ± 0.23 % dose/g
same,Organ distribution: Skin,[4],1.16 ± 0.57 % dose/g
same,Organ distribution: Spleen,[4],11.09 ± 3.35 % dose/g
